Columns and labels:
Type in all cases: biochemical
[1] = target: Zea mays EPSPS variant 311S (Zea mays, UniProt O24566, P310S); assay: EPSPS reaction rate with or without 10 uM glyphosate, 311S; details: pH 7; read-out: Reaction rate with 10 μM glyph, % no glyph; also: 50 µM PEP and S3P
Bacterial EPSPS (CP4) = Bacterial EPSPS (CP4) (Agrobacterium sp., UniProt Q9R4E4); assay: Rapid two-rate method for (kcat/KM)*KI, bacterial EPSPS (CP4)
Description: There are several practical considerations for accurately estimating (kcat/KM)*KI with the rapid method. […] 2) The inhibitor concentration must be adjusted so as to obtain a degree of inhibition that minimally amplifies the error in the term v0-vi in Equation 3. If inhibition is too little, v0-vi will be small, and the error in the multiplier vi×v0/(v0-vi) will be large. […] 3) Substrate concentration should be set at the approximate KM of the parental variant(s), subject to the sensitivity of the assay. High substrate concentration obscures sensitivity to the inhibitor and reduces stringency for capturing improvements in KM. Depending on the necessity for speed, there exists opportunity for customizing enzyme and inhibitor concentrations. […] The rapid method was repeated for those and obtained data that correlated better with data obtained by substrate saturation analysis. For screening purposes however, that correlation step is not necessary. Conditions can be set so that variants with a pre-determined minimal fitness level are accurately quantified.
In Table 15, parameters above the heavy line for the rapid method were obtained under standard conditions. For variants shown below the heavy line, the rapid analysis was repeated with enzyme or glyphosate concentrations adjusted as needed to generate sufficient signal within the limits for linear initial rates.

[2] = target: Zea mays EPSPS variant 4R (Zea mays, UniProt O24566, A3R); assay: EPSPS reaction rate with or without 10 uM glyphosate, 4R; details: pH 7; read-out: Reaction rate with 10 μM glyph, % no glyph; also: 50 µM PEP and S3P
Sequence of Zea mays EPSPS variant 4R (O24566 entry or part of it A3R): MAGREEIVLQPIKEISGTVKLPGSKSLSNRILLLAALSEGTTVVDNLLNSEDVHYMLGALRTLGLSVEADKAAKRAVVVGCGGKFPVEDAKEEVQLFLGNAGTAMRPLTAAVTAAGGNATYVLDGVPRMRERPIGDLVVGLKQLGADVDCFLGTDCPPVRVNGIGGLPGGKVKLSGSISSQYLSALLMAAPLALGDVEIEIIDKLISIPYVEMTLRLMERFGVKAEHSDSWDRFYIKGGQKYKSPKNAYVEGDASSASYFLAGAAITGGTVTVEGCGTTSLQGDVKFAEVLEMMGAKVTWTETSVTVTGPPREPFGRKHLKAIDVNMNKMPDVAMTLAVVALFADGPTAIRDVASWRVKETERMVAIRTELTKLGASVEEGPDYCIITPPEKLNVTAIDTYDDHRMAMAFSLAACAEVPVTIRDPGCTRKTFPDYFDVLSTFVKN

[3] = target: T1, Zea mays EPSPS variant Zm-H6 (868-H6) with H54E (H6-H54E) (Zea mays, UniProt O24566, A1R/A3W/A415G/A71Q/D401G/E301S/E390G/G101A/H53E/I207L/K83R/L97C/T278A/T360S/T440Q/V437R); assay: Substrate saturation kinetic analysis with glyphosate, H6-H54E
T1 construct: 868-H6 plus H54E; E. coli BL21(DE3), Ni-NTA purified
T1 sequence (O24566 with tags, fused parts or gaps A1R/A3W/H53E/A71Q/K83R/L97C/G101A/I207L/T278A/E301S/T360S/E390G/D401G/A415G/V437R/T440Q): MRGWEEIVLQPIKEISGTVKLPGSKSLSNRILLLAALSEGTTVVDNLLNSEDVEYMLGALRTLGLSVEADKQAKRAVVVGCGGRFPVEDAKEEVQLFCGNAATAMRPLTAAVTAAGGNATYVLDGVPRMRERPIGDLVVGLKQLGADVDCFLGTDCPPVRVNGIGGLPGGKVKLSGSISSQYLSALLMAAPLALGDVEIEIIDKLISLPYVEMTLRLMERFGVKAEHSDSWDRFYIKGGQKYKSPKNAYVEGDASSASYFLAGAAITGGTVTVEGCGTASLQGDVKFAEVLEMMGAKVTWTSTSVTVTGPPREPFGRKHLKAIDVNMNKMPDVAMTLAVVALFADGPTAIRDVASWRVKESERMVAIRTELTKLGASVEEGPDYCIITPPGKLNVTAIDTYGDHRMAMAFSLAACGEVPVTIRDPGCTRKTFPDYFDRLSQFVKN

Sequence of Bacterial EPSPS (CP4) (Q9R4E4 whole entry): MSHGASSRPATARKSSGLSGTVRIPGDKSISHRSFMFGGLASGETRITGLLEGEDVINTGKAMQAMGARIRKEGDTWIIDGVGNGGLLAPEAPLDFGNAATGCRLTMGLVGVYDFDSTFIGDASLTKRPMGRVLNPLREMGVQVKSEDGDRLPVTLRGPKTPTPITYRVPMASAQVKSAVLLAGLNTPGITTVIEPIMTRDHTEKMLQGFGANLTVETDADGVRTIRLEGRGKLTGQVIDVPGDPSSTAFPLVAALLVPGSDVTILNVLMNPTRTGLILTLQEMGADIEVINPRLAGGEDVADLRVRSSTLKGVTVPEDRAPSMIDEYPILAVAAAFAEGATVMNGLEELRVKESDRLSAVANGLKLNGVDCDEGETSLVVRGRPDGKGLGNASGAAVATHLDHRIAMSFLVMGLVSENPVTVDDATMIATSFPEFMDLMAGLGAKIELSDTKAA
Sequence of Zea mays EPSPS variant 311S (O24566 entry or part of it P310S): as the sequence (O24566 entry or part of it A3R) above, with R4A, P311S counted along it

O=C(O)CNCP(=O)(O)O [glyphosate, N-phosphonomethylglycine]
activity at 10 µM [1]: 4.37%
(kcat/KM)*KI (Bacterial EPSPS (CP4); rapid method repeated, CP4, [E] 0.007 uM, [Gly] 2000 uM): 111800
(kcat/KM)*KI (Bacterial EPSPS (CP4); rapid method, Bacterial EPSPS, [E] 0.07 uM, [Gly] 1000 uM): 64262
activity at 10 µM [2]: 7.38%
Ki [3]: 488 µM
(kcat/KM)*KI ([3]; substrate saturation, H6-H54E): 4340

From US11549123B2, “Plant EPSP synthases and methods of use” (PIONEER HI-BRED INTERNATIONAL, INC., priority 2015, dated 2023)
